# Counter-ions that a name gives are not always drawn.
# Key:
# [1] = tested on: Ischemic and Nonischemic Isolated Rat Heart; experiment: Isolated perfused rat heart (Langendorff), global ischemia/reperfusion: cardiac function, flow and LDH release; parameters: species or system rat (male Sprague-Dawley); FLOW (coronary blood flow): unit not given here; conditions: for DP (Double Product, HR x LVDP / 1,000) / FLOW (coronary blood flow) / HR (Heart Rate) / LVDP (Left Ventricular Developed Pressure) / LDH (Lactate Dehydrogenase Release) / LDH/DP / cardioprotection compared with diltiazem: 1 μM; for LDH (Lactate Dehydrogenase Release): Postischemia, cumulative over 30 min reperfusion, per g preischemia heart weight, lower = greater cardioprotection; for LDH/DP: ratio of cardioprotection to cardiodepression, lower = greater selectivity; for cardioprotection compared with diltiazem: post-ischemia LDH
# Protocol: Lactate dehydrogenase is an enzyme released in the heart during an ischemic event and is an index of cardiac cell necrosis. In the Grover et al. model, this is measured during reperfusion and an agent which provides for lower release levels of LDH is considered to offer greater cardioprotection since lower LDH indicates a smaller infarct size. Cardiac function is determined using the double product (DP) of heart rate times the left ventricular developed pressure (LVDP) divided by 1,000.
# The lower the value for DP before ischemia for a given agent, the more cardiodepressant it is considered to be.
# Male Sprague-Dawley rats (450-550 g) were used in all experiments. The rats were anesthetized using 30 mg/kg sodium pentobarbital (i.p.). They were intubated and then treated with i.v. heparin (1000 U/kg). While being mechanically ventilated, their hearts were perfused in situ via retrograde cannulation of the aorta. The hearts were then excised and quickly moved to a Langendorff apparatus where they were perfused with Krebs-Henseleit bicarbonate buffer (112 mM NaCl, 5 mM KCl, 1.2 mMMg SO4, 1 mM KH2 PO4, 1.25 mM CaCl2, 11.5 mM dextrose, and 2 mM pyruvate) at a constant pressure (75 mm Hg). A water filled latex balloon attached to a metal cannula was then inserted into the left ventricle and connected to a Statham pressure transducer for measurement of left ventricular pressure. The hearts were allowed to equilibrate for 15 minutes at which time end diastolic pressure (EDP) was adjusted to 5 mm Hg and this was maintained for 5 minutes. Pre-ischemia or pre-drug function, heart rate and coronary blood flow (extracorporeal electromagnetic flow probe, Carolina Medical Electronics, King, N.C.) were then measured. Cardiac function was determined using the double product of heart rate (HR) times left ventricular developed pressure (LVDP) divided by 1,000.
# All of these hearts were treated with their respective drugs or vehicle for ten minutes. At this time, post-drug cardiac function and flow were measured and then the hearts were made globally ischemic by shutting off the buffer perfusion. The ischemia was maintained for 25 minutes at which time reperfusion with nondrug treated buffer was instituted. Reperfusion was maintained for 30 minutes and at this time reperfusion function and flow were again determined.
# At the end of the reperfusion period, the reperfusion buffer was sampled for cumulative LDH release as previously described. LDH release was expressed as U/g preischemia heart weight for the 30 minute collection period. LDH release is a sensitive index for loss of cell viability. Determination of the relationship between pre-ischemic, post-drug cardiac function was made by dividing the double product (HR ×LVDP/1000) by the cumulative LDH release.
# All data were analyzed using a one way analysis of variance. Multiple comparisons were done using the Duncan procedure. All data are expressed as the mean±SE.
# The pre-ischemia DP values are a measure of the cardiodepression of the drug on the healthy cardiac tissue.
# The post-ischemia LDH values are a measure of the cardioprotection or anti-ischemic activity of the drug. In this case, lower values indicate greater anti-ischemic activity or greater cardioprotection.
# The LDH/DP values are the ratio of cardioprotection to cardiodepression, the lower values indicating a greater selectivity for anti-ischemic activity.
# The post-ischemia DP indicates cardiodepression after the ischemic episode and the lower DP values here are indicative of agents which still remained in the cardiac tissue for more than 30 minutes post ischemia. [drawing 16]
# [2] = tested on: isolated canine cardiac Purkinje fibers; experiment: Normal action potential parameters incl. upstroke velocity (Vmax; sodium entry), standard microelectrode techniques; format: cell-based; conditions: for Vmax (velocity of upstroke): in V/s (unit assumed)
# Protocol: (§1) The calcium channel blocking and sodium entry blocking activities of compounds of the present invention were tested using standard microelectrode techniques in isolated canine cardiac Purkinje fibers as reported in J. L. Bergey et al., "Antiarrhythmic, hemodynamic, and cardiac electrophysiological evaluation of N-(2,6-dimethylphenyl)-N'-[3-(1-methylethylamino)propyl]-urea), (Wy 42,362)", Arzneim -Forsch, 33:1258, 1983). […] Depression of this parameter indicates depression of calcium entry into cardiac tissue. […] Significant depression of the upstroke velocity (vmax) indicates the blocking of sodium entry into cardiac tissue.
# [3] = tested on: rabbit aorta; experiment: Reduction of tone of rabbit aorta by high potassium (Vasc. Ca^++ Block); format: cell-based; conditions: Oryctolagus cuniculus; read-out: IC50 in reducing tone of rabbit aorta by high potassium (Vasc. Ca^++ Block)
# Excerpt: |(SAPA), in reducing maximum upstroke velocity (Vmax) |and in reducing tone of rabbit aorta by high potassium |(Vasc. Ca^++ Block)
# [4] = tested on: isolated canine cardiac Purkinje fibers; experiment: Calcium-dependent slow response action potential amplitude (SAPA), standard microelectrode techniques; format: cell-based; conditions: Canis lupus familiaris, read-out: IC50 in reducing slow response action potential amplitude (SAPA)
# Protocol: as §1
# [5] = Postischemia (30 min.), occlusion 25 minutes, reperfusion 30 minutes
# [6] = Preischemia (Post Drug), lower = more cardiodepressant
Structure (SMILES),"DP (Double Product, HR x LVDP / 1,000) [1, 5]","FLOW (coronary blood flow) [1, 5]","HR (Heart Rate) [1, 5]","LVDP (Left Ventricular Developed Pressure) [1, 5]",LDH (Lactate Dehydrogenase Release) [1],FLOW (coronary blood flow) ([1]; Preischemia (Post Drug)),HR (Heart Rate) ([1]; Preischemia (Post Drug)),LVDP (Left Ventricular Developed Pressure) ([1]; Preischemia (Post Drug)),"DP (Double Product, HR x LVDP / 1,000) [1, 6]",LDH/DP [1],other results
"COc1ccc([C@@H]2Sc3ccccc3N(CCN(C)C)C(=O)[C@@H]2OC(C)=O)cc1 [Diltiazem, reference compound]",24,17,231 beats/min,104 mmHg,10 U/g,22,217 beats/min,45 mmHg,10,0.98,"ischemic selectivity among diltiazem, nifedipine and verapamil ([1]; Grover et al. methodology): greatest ischemic selectivity"
"COc1ccc(CSc2ccccc2N(CCCN(C)C)C(=O)Cc2ccccc2)cc1 [Example 2, N-[3-(Dimethylamino)propyl]-N-[2-[[(4-methoxyphenyl)methyl]thio]phenyl]benzeneacetamide, monohydrochloride]",14,11,188 beats/min,73 mmHg,8.9 U/g,20,219 beats/min,135 mmHg,29,0.30,–
"CN(C)CCCN(C(=O)Cc1ccccc1)c1ccccc1SCc1ccccc1.Cl [Example 3, N-[3-(Dimethylamino)propyl]-N-[2-[(phenylmethyl)thio]phenyl]benzeneacetamide, monohydrochloride]",22,11,238 beats/min,93 mmHg,5.2 U/g,18,243 beats/min,79 mmHg,19,0.30,"APD 50 (action potential duration @ 50% repolarization) ([2]; 1 × 10^-5): 123 ± 2; APD90 (action potential duration @ 90% repolarization) ([2]; 1 × 10^-5): 271 ± 8; PP (peak potential) ([2]; 1 × 10^-5): 7 ± 1; RP (resting potential) ([2]; 1 × 10^-5): 84 ± 1; Vmax (velocity of upstroke) ([2]; 1 × 10^-5): 156 ± 11; APD 50 (action potential duration @ 50% repolarization) ([2]; 1 × 10^-6): 181 ± 5; APD90 (action potential duration @ 90% repolarization) ([2]; 1 × 10^-6): 282 ± 2; PP (peak potential) ([2]; 1 × 10^-6): 32 ± 1; RP (resting potential) ([2]; 1 × 10^-6): 88 ± 1; Vmax (velocity of upstroke) ([2]; 1 × 10^-6): 401 ± 16; APD 50 (action potential duration @ 50% repolarization) ([2]; 3 × 10^-6): 125 ± 3; APD90 (action potential duration @ 90% repolarization) ([2]; 3 × 10^-6): 251 ± 1; PP (peak potential) ([2]; 3 × 10^-6): 26 ± 1; RP (resting potential) ([2]; 3 × 10^-6): 88 ± 1; Vmax (velocity of upstroke) ([2]; 3 × 10^-6): 286 ± 9; IC50 ([2]; Canis lupus familiaris, purkinje, sodium entry, read-out: IC50 in reducing maximum upstroke velocity (Vmax)): 3800 nM; IC50 [3]: 1700 nM; cardioprotection compared with diltiazem [1]: offered more cardioprotection than diltiazem; IC50 [4]: 1500 nM"
"CN(C)CCN(C(=O)Cc1ccccc1)c1ccccc1SCc1ccccc1.Cl [Example 4, N-[2-(Dimethylamino)ethyl]-N-[2-[(phenylmethyl)thio]phenyl]benzeneacetamide, monohydrochloride]",15,15,239 beats/min,60 mmHg,21 U/g,20,236 beats/min,123 mmHg,30,0.79,–
"CN(C)CCCCN(C(=O)Cc1ccccc1)c1ccccc1SCc1ccccc1 [Example 5, N-[4-(Dimethylamino)butyl]-N-[2-[(phenylmethyl)thio]phenyl]benzeneacetamideoxalate (1:1) salt]",10,11,180 beats/min,51 mmHg,16.5 U/g,15,253 beats/min,115 mmHg,29,0.57,–
"CN(C)CCCN(C(=O)Cc1ccccc1)c1ccccc1OCc1ccccc1.O=C(O)C(=O)O [Example 6, N-[3-(Dimethylamino)propyl]-N-[2-(phenylmethoxy)phenyl]benzeneacetamide, oxalate salt (1:1)]",20,10,222 beats/min,89 mmHg,5.7 U/g,15,230 beats/min,113 mmHg,26,0.22,–
"CN(C)CCCN(C(=O)c1ccccc1)c1ccccc1SCc1ccccc1.Cl [Example 7, 2'-(Benzylthio)-N-[3-(dimethylamino)propyl]benzanilide, hydrochloride]",15,8,220 beats/min,72 mmHg,6.7 U/g,11,218 beats/min,132 mmHg,29,0.24,–
"COc1cc(SCc2ccccc2)c(N(CCCN(C)C)C(=O)Cc2ccccc2)cc1OC [Example 8, N-[3-(Dimethylamino)propyl]-N-[4,5-dimethoxy-2-sulfonyl),[(phenylmethyl)thio]phenyl]benzeneacetamide, oxalate (1:1) salt]",17,8,246 beats/min,71 mmHg,3.7 U/g,19,216 beats/min,65 mmHg,14,0.26,–
"COc1ccc(CSc2cc(Cl)ccc2N(CCCN(C)C)C(=O)Cc2ccccc2)cc1.Cl [Example 9, N-[3-(Dimethylamino)propyl]-N-[4-chloro-2-[[(4-methoxyphenyl)methyl]thio]phenyl]benzeneacetamide, monohydrochloride]",11,9,214 beats/min,52 mmHg,8.2 U/g,18,226 beats/min,126 mmHg,29,0.29,cardioprotection compared with diltiazem [1]: comparable to diltiazem in cardioprotection
"CN(C)CCCCN(C(=O)C=Cc1ccccc1)c1ccccc1SCc1ccccc1 [Example 24, N-[4-(Dimethylamino)butyl]-3-phenyl-N-[2-[(phenylmethyl)thio]phenyl]-2-propenamide, oxalate salt (1:1)]",–,–,–,–,–,–,–,–,–,–,IC50 [3]: 1200 nM; IC50 [4]: 2600 nM
